Assay results reported in US8076101B2, “Method of detecting the cystic fibrosis transmembrane conductance regulator (CFTR) at cell exterior” (priority 2003, dated 2011).
Entries after “also recorded” stand apart in the source; their conditions may differ. Residues, ends and D or L forms follow the SMILES beside them. *: point of attachment. Cbz = O=C(OCc1ccccc1)*

What was measured:
Format in all cases: cell-based
Extope-ΔF508 CFTR = assay: Immunofluorescence microscopy of externally labeled Extope-ΔF508 CFTR after re-incubation with protease inhibitors; conditions: re-incubated at 37° C. for 7 hours
Method: FIG. 10B. […] Cell surface Extope-CFTR or Extope-ΔF508 CFTR were labeled with 16B12 as described in FIG. 2A. Cells were re-incubated at 37° C. for 7 hours with either lysosomal inhibitors pepstatin-A and leupeptin (Pep+Leu, each 50 μg/ml) and E64 (3.5 μg/ml) or proteasomal inhibitors lactacystin (50 μM) and MG132 (50 μM) or without drug (control) and stained for immunofluorescence microscopy. Nuclei were stained with propidium iodide.
Cells were treated with lysosomal inhibitors pepstatin-A and leupeptin as described in FIG. 5B. Extope-ΔF508 CFTR was labeled with 16B12 at the cell surface and detected 7 hours later using goat anti-mouse IgG Alexa Fluor 488 conjugate. Lysosomes were labeled with Lysotracker Red (Molecular Probes).

[1] = tested on: Extope-CFTR and ΔF508 CFTR; assay: Chemiluminescence assay of cell surface Extope-CFTR and ΔF508 CFTR retained after reincubation; conditions: lactacystin 25 μM, reincubated for indicated times, 8 replicates
Method: FIG. 10D. […] Extope-CFTR and ΔF508 CFTR were labeled on intact pre-cooled cells on ice for 30 minutes with 16B12 mAb and cells were reincubated in the presence or absence of lactacystin (25 μM) for indicated times. Cell surface Extope-CFTR was detected in a chemiluminescence assay at indicated times using sheep anti-mouse peroxidase conjugate and chemiluminescence. Each experiment was performed with 8 replicates and standard deviations are indicated.

XT-ΔF508 CFTR = assay: cyclic AMP stimulated 36Cl efflux (CFTR chloride channel activity); conditions: grown at 28° C. with 2 mM sodium butyrate for 48 h; forskolin (10 μM) and IBMX (1 mM)
Method: FIG. 5. CFTR chloride channel activity as monitored by ^36Cl efflux from cells expressing wild-type CFTR (◯), ΔF508 CFTR without (♦) or with (▴) 2 mM sodium butyrate or no CFTR (□). Cells were preloaded with ^36Cl and then exposed to forskolin (10 μM) and IBMX (1 mM) at time 0. The amounts of ^36Cl radioactivity released from the cells in subsequent 1 min intervals was monitored by scintillation counting.
To determine the functional capability of the EL2 modified variants, rates of cyclic AMP stimulated ^36Cl efflux from cells expressing them were measured. The rate of efflux from cells expressing wild-type XT-CFTR was similar to that with unmodified wild-type (FIG. 5).

[2] = tested on: ΔF508 CFTR with modified EL2 (XT-ΔF508); assay: Quantitative luminescence detection of XT-ΔF508 CFTR at surface of cells in 96 well microtiter plates
Method: FIG. 6. Quantitative detection of CFTR with EL2 epitope (XT-CFTR) at surface of cells grown in 96 well microtiter plates. Cells were washed, fixed and exposed to an antibody recognizing the external epitope, washed again and incubated with a horseradish peroxidase coupled second antibody and then with a peroxidase substrate that becomes luminescent after peroxidation. Luminescent signals in each well were quantitated in either a Packard Microplate Luminescence Counter or a Perkin Elmer VICTOR^2 Multilabel Counter. […] The corresponding quantitative signals are shown below.
To provide a more facile and quantifiable means of detecting EL2 modified CFTR on the cell surface, cells were plated on 96-well microtiter plates. The amount of surface epitope was measured either by luminometry or time resolved fluorescence. After incubation with a primary unlabeled mouse antibody to the epitope (HA11, Babco) and washing, a secondary horseradish peroxidase coupled antibody recognizing mouse IgG was added followed by peroxidase substrate that luminesces when peroxidized. Luminescence was measured in each well in one of two different luminescence plate readers. A strong signal is obtained in the replicate row of wild-type XT-CFTR expressing cells and signals of strengthening intensity are obtained in rows of XT-ΔF508 cells grown at 28° C. with increasing concentrations of butyrate.

CC(C)C[C@H](NC(=O)[C@H]1O[C@@H]1C(=O)O)C(=O)NCCCCN=C(N)N [E64]
endocytic turn over of ΔF508-CFTR (Extope-ΔF508 CFTR; 3.5 μg/ml): inhibit endocytic turn over

CC(C)C[C@@H](C=O)NC(=O)[C@H](CC(C)C)NC(=O)[C@H](CC(C)C)NC(=O)OCc1ccccc1 [MG132] (Cbz-Leu-Leu-Leu-aldehyde)
endocytic turn over of ΔF508-CFTR (Extope-ΔF508 CFTR; 50 μM): inhibit endocytic turn over

CC(=O)N[C@@H](CSC(=O)[C@]1([C@@H](O)C(C)C)NC(=O)[C@H](C)[C@@H]1O)C(=O)O [lactacystin]
endocytic turn over of ΔF508-CFTR (Extope-ΔF508 CFTR; 50 μM): inhibit endocytic turn over | amount of CFTR retained at the cellular surface [1]: increases the amount of CFTR retained at the cellular surface

CCCC(=O)[O-].[Na+] [sodium butyrate]
36Cl efflux from ΔF508 CFTR expressing cells relative to wild-type (XT-ΔF508 CFTR): more closely approaches those of wild-type; also recorded: nearly as great as from cells expressing wild-type CFTR | amount of ΔF508 CFTR with modified EL2 detected at the cell surface (luminescent signal) ([2]; cells grown at 28° C. for 24 h, increasing concentrations of sodium butyrate): Increasing amounts | XT-ΔF508 surface luminescence signal relative to wild-type XT-CFTR ([2]; cells grown at 28° C., maximal butyrate dose): more than half that of the wild-type
